Test results as given in patent publication US20220071952A1, “METHODS OF TREATING AND PREVENTING HEPATOTOXICITY” (Natreon, Inc., priority 2020, published 2022).

Columns and labels:
[1] = system: paracetamol-induced hepatotoxicity in mice; assay: Synergistic hepatoprotective activity of DBPs against paracetamol-induced hepatotoxicity (Example IV); type: in vivo; conditions: for ACP / ALP / ALT / AST / Total Protein: paracetamol 200 mg/kg, mean ± SEM, n=4
[2] = Body weight, food intake and water intake during alcohol-induced hepatotoxicity study (Example III); type: in vivo, Swiss Albino mice; conditions: for change in body weight / change in food intake / change in water intake: 10 mg/kg p.o. + alcohol, 15 days; for body weight / food intake / water intake: 10 mg/kg p.o. + alcohol 5 g/kg p.o. twice daily, mean ± SD
Method: (§1) Swiss Albino male and female mice weighing approximately 30±5 g, 2 month old mice were obtained from National Research Institute of Ayurveda for Drug Development (Govt. of India), Kolkata, and were housed in polypropylene cages at 22±3° C., relative air humidity of 45 to 55%, with 12.00 hr light & dark cycle (lighting on from 6:00 AM to 6:00 PM). Mice were provided a standard pellet chow diet (carbohydrate 65.5%, protein 17.6%, fat 6.6%) and distilled water ad libitum. The mice were acclimatized for one week in the laboratory conditions, before being used in the experiment. All experiments were conducted between 10.00 hr and 14.00 hr. Principles of laboratory animals care (NIH publication no. 85-23, revised 1985) were followed.
(§2) Vehicle control animals (“Con Veh”) were administered 0.3% CMC orally for 15 days.
(§3) Animals receiving ethanol (“Alc+0.3 CMC”, “3-OH-DBP+Alc”, “3,8-(OH)2-DBP+Alc”) were administered ethanol in 0.3% CMC orally as discussed above.
(§4) Results were expressed in terms of mean±SD (n=8). The data were subjected to one way ANOVA followed by Tukey's test using GraphPad Prism 4.0 software to establish statistical significance (*p<0.05, **p<0.01, ***p<0.001 vs. vehicle control; # p<0.05, ## p<0.01, ### p<0.001 vs. animals administered ethanol only).

[3] = system: alcohol-induced hepatotoxicity in mice; assay: Synergistic hepatoprotective activity of DBPs against alcohol-induced hepatotoxicity (Example IV); conditions: for ACP / ALP / ALT / AST / Total Protein: alcohol 5 g/kg, mean ± SEM, n=4
Method: Hepatotoxicity was induced by oral administration of alcohol (ethanol: 5 g/kg) from stock 400 mg/ml twice daily for 15 days.
3-OH-DBP and 3,8-(OH)2-DBP were each separately suspended in 0.3% CMC and administered at a dose of 10 mg/kg body weight per orally for 15 days. During the 15 days treatment, body weight, food intake, and water intake were monitored at regular intervals. Following 15 days of treatment physical parameters (relative organ weight) and biochemical parameters (plasma total protein content, ALT, AST, ALP, and ACP) were studied.
3-OH-DBP (2 mg/kg body weight, 10 mg/kg body weight);
3,8-(OH)2-DBP (10 mg/kg body weight, 50 mg/kg body weight); and

[4] = system: alcohol-induced hepatotoxicity in mice; assay: Alcohol (ethanol)-induced hepatotoxicity in mice, biochemical and physical parameters (Example III); type: in vivo, Swiss Albino mice; conditions: for Relative organ weight (w.r.t body weight) Kidney / Relative organ weight (w.r.t body weight) Liver / ACP / ALP / ALT(SGPT) / AST(SGOT) / Total Protein: 10 mg/kg p.o. + alcohol 5 g/kg p.o. twice daily, mean ± SD; for ACP / ALP / ALT(SGPT) / AST(SGOT) / Total Protein: plasma
Method: as §1
In the present study simultaneous administration of alcohol (ethanol) and treatment with 3-OH-DBP and 3,8-(OH)2-DBP was done.
as §2, §3, §4

[5] = female mice, doses 3-OH-DBP 2, 3,8-(OH)2-DBP 10, 1:5 combination 12 mg/kg b.w.
[6] = female mice, doses 3-OH-DBP 10, 3,8-(OH)2-DBP 50, 1:5 combination 60 mg/kg b.w.
[7] = male mice, doses 3-OH-DBP 2, 3,8-(OH)2-DBP 10, 1:5 combination 12 mg/kg b.w.
[8] = male mice, doses 3-OH-DBP 10, 3,8-(OH)2-DBP 50, 1:5 combination 60 mg/kg b.w.
[9] = female mice, doses 3-OH-DBP 2, 3,8-(OH)2-DBP 10, combination 12 mg/kg b.w.
[10] = female mice, doses 3-OH-DBP 10, combination 60 mg/kg b.w.
[11] = female mice (Table 14), 10 mg/kg p.o.
[12] = male mice (Table 13), 10 mg/kg p.o.

Structure (SMILES): O=c1oc2cc(O)ccc2c2ccccc12 [3-OH-DBP, 3-hydroxy-dibenzo-alpha-pyrone]
- ACP, difference in values from paracetamol treated mice [1, 5]: A = (a-b = 4) U/L
- ALP, difference in values from paracetamol treated mice [1, 5]: A = (a-b = 21) IU/L
- ALT, difference in values from paracetamol treated mice [1, 5]: A = (a-b = 15) IU/L
- AST, difference in values from paracetamol treated mice [1, 5]: A = (a-b = 45) IU/L
- ACP, difference in values from paracetamol treated mice [1, 6]: D = (a-e = 7.6) U/L
- ALP, difference in values from paracetamol treated mice [1, 6]: D = (a-e = 26) IU/L
- ALT, difference in values from paracetamol treated mice [1, 6]: D = (a-e = 36) IU/L
- AST, difference in values from paracetamol treated mice [1, 6]: D = (a-e = 71) IU/L
- ACP [1, 5]: 12 ± 0.71***(b) U/L
- ALP [1, 5]: 77 ± 11***(b) IU/L
- ALT [1, 5]: 71 ± 9**(b) ^ IU/L
- AST [1, 5]: 98 ± 10**(b) IU/L
- Total Protein [1, 5]: 6.2 ± 0.16 g/dL
- ACP [1, 6]: 8.4 ± 1.2^#(e) ^ U/L
- ALP [1, 6]: 72 ± 6.9**(e) IU/L
- ALT [1, 6]: 50 ± 9.8*,^#(e) IU/L
- AST [1, 6]: 72 ± 6*,^#(e)^ IU/L
- Total Protein [1, 6]: 6.2 ± 0.02 g/dL
- Relative liver weight ([1]; male and female mice, paracetamol study of Example IV): significantly (p<0.01) increased
- ACP, difference in values from paracetamol treated mice [1, 7]: A = (a-b = 8.5) U/L
- ALP, difference in values from paracetamol treated mice [1, 7]: A = (a-b = 38.33) IU/L
- ALT, difference in values from paracetamol treated mice [1, 7]: A = (a-b = 7.29) IU/L
- AST, difference in values from paracetamol treated mice [1, 7]: A = (a-b = 30.67) IU/L
- ACP, difference in values from paracetamol treated mice [1, 8]: D = (a-e = 5.44) U/L
- ALP, difference in values from paracetamol treated mice [1, 8]: D = (a-e = 43.75) IU/L
- ALT, difference in values from paracetamol treated mice [1, 8]: D = (a-e = 16.14) IU/L
- AST, difference in values from paracetamol treated mice [1, 8]: D = (a-e = 31.7) IU/L
- ACP [1, 7]: 9.69 ± 0.32**,^##(b) U/L
- ALP [1, 7]: 90.17 ± 4.16***,^#(b) IU/L
- ALT [1, 7]: 60.34 ± 4.78 (b) IU/L
- AST [1, 7]: 71.38 ± 4.63^#(b)^ IU/L
- Total Protein [1, 7]: 7.28 ± 0.14 g/dL
- ACP [1, 8]: 12.75 ± 1.43 (e) U/L
- ALP [1, 8]: 84.75 ± 5.32*,^#(e)^ IU/L
- ALT [1, 8]: 51.49 ± 4.49 (e)^ IU/L
- AST [1, 8]: 70.35 ± 6.21(e)^ IU/L
- Total Protein [1, 8]: 7.34 ± 0.15 g/dL
- hepatoprotective activity (conclusion, Tables 15 and 16) ([1]; paracetamol-induced hepatotoxicity, male and female mice): hepatoprotective activity in a dose dependent manner
- change in body weight ([2]; female mice): No significant change
- change in food intake ([2]; female mice): No significant change
- change in water intake ([2]; female mice): No significant change
- body weight ([2]; female mice, Day 0): 26.83 ± 1.60 gm
- food intake ([2]; female mice, Day 0): 8.14 ± 1.67 gm
- water intake ([2]; female mice, Day 0): 4.16 ± 0.60 mL
- body weight ([2]; female mice, Day 5): 25.5 ± 1.22 gm
- water intake ([2]; female mice, Day 5): 4.32 ± 0.28 mL
- body weight ([2]; female mice, Day 10): 24.33 ± 1.97 gm
- food intake ([2]; female mice, Day 10): 16.38 ± 1.18 gm
- water intake ([2]; female mice, Day 10): 1.85 ± 0.30 mL
- body weight ([2]; female mice, Day 15): 25.17 ± 0.75 gm
- food intake ([2]; female mice, Day 15): 15.88 ± 0.76 gm
- water intake ([2]; female mice, Day 15): 1.84 ± 0.18 mL
- change in body weight ([2]; male mice): No significant change
- change in food intake ([2]; male mice): No significant change
- change in water intake ([2]; male mice): No significant change
- body weight ([2]; male mice, Day 0): 24.33 ± 2.25 gm
- food intake ([2]; male mice, Day 0): 14.02 ± 0.06 gm
- water intake ([2]; male mice, Day 0): 2.05 ± 0.23 mL
- body weight ([2]; male mice, Day 5): 24 ± 1.55 gm
- food intake ([2]; male mice, Day 5): 14.18 ± 0.72 gm
- water intake ([2]; male mice, Day 5): 2 ± 0.27 mL
- body weight ([2]; male mice, Day 10): 25.5 ± 1.05 gm
- food intake ([2]; male mice, Day 10): 14.51 ± 0.77 gm
- water intake ([2]; male mice, Day 10): 1.93 ± 0.23 mL
- body weight ([2]; male mice, Day 15): 25.3 ± 0.52 gm
- food intake ([2]; male mice, Day 15): 14.45 ± 0.78 gm
- water intake ([2]; male mice, Day 15): 1.98 ± 0.25 mL
- hepatoprotective activity (conclusion, Tables 17 and 18) ([3]; alcohol-induced hepatotoxicity, male and female mice): hepatoprotective activity in a dose dependent manner
- ACP [3, 9]: 19.3 ± 1 (b) U/L
- ALP [3, 9]: 106.6 ± 8 (b) ^ IU/L
- ALT [3, 9]: 85.31 ± 7.89 (b) IU/L
- AST [3, 9]: 54.81 ± 8.13 (b)^ IU/L
- Total Protein [3, 9]: 7.21 ± 0.36 g/dL
- ACP [3, 10]: 12.1±***,^# (e) U/L
- ALP [3, 10]: 79 ± 11 (e) IU/L
- ALT [3, 10]: 57.15 ± 3.46 (e) IU/L
- AST [3, 10]: 41.11 ± 6.98 (e)^ IU/L
- Total Protein [3, 10]: 6.53 ± 0.32 g/dL
- ACP, difference in values from alcohol treated mice [3, 9]: A = (a-b = 1.97) U/L
- ALP, difference in values from alcohol treated mice [3, 9]: A = (a-b = 33.4) IU/L
- ALT, difference in values from alcohol treated mice [3, 9]: A = (a-b = 3.53) IU/L
- AST, difference in values from alcohol treated mice [3, 9]: A = (a-b = 14.14) IU/L
- ACP, difference in values from alcohol treated mice [3, 10]: D = (a-e = 8.9) U/L
- ALP, difference in values from alcohol treated mice [3, 10]: D = (a-e = 61) IU/L
- ALT, difference in values from alcohol treated mice [3, 10]: D = (a-e = 31.69) IU/L
- AST, difference in values from alcohol treated mice [3, 10]: D = (a-e = 27.84) IU/L
- ACP [3, 7]: 13.3 ± 1.03 (b) U/L
- ALP [3, 7]: 90.2 ± 6.68 (b) IU/L
- ALT [3, 7]: 74.9 ± 1.66 (b) IU/L
- AST [3, 7]: 46.5 ± 3.19 (b) IU/L
- Total Protein [3, 7]: 6.68 ± 0.43 g/dL
- ACP [3, 8]: 11.6 ± 0.89 (e) U/L
- ALP [3, 8]: 83.4 ± 4.87 (e) IU/L
- ALT [3, 8]: 65.4 ± 2.59(e) IU/L
- AST [3, 8]: 39.9 ± 5.30 (e) IU/L
- Total Protein [3, 8]: 8.24 ± 0.43 g/dL
- ACP, difference in values from alcohol treated mice [3, 7]: A = (a-b = 5.3) U/L
- ALP, difference in values from alcohol treated mice [3, 7]: A = (a-b = 43.8) IU/L
- ALT, difference in values from alcohol treated mice [3, 7]: A = (a-b = 31.1) IU/L
- AST, difference in values from alcohol treated mice [3, 7]: A = (a-b = 13.5) IU/L
- ACP, difference in values from alcohol treated mice [3, 8]: D = (a-e = 7) U/L
- ALP, difference in values from alcohol treated mice [3, 8]: D = (a-e = 50.6) IU/L
- ALT, difference in values from alcohol treated mice [3, 8]: D = (a-e = 40.6) IU/L
- AST, difference in values from alcohol treated mice [3, 8]: D = (a-e = 20.8) IU/L
- hepatoprotective activity against alcohol-induced hepatotoxicity ([4]; 10 mg/kg p.o., 15 days): significant hepatoprotective activity
- effect on alcohol-induced increased plasma ACP [4, 11]: significantly (p<0.05) attenuated
- effect on alcohol-induced increased plasma ALT [4, 11]: significantly (p<0.001) attenuated
- effect on alcohol-induced increased plasma AST [4, 11]: significantly (p<0.05; p<0.01) attenuated
- effect on plasma ALP level compared with ALC group [4, 11]: significantly (p<0.05) decreased
- Relative organ weight (w.r.t body weight) Kidney ([4]; female mice, 15 days): 0.013 ± 0.001^
- Relative organ weight (w.r.t body weight) Liver ([4]; female mice, 15 days): 0.052 ± 0.011^
- ACP ([4]; female mice, 15 days): 5.58 ± 2.19^# IU/L
- ALP ([4]; female mice, 15 days): 32.95 ± 13.06^# IU/L
- ALT(SGPT) ([4]; female mice, 15 days): 6.72 ± 2.88^## IU/L
- AST(SGOT) ([4]; female mice, 15 days): 6.19 ± 1.94^# IU/L
- Total Protein ([4]; female mice, 15 days): 2.75 ± 0.167 g/dL
- effect on alcohol-induced increased plasma ACP [4, 12]: significantly (p<0.05) attenuated
- effect on alcohol-induced increased plasma ALT [4, 12]: significantly (p<0.05) attenuated
- effect on alcohol-induced increased plasma AST [4, 12]: significantly (p<0.05) attenuated
- Relative organ weight (w.r.t body weight) Kidney ([4]; male mice, 15 days): 0.014 ± 0.001
- Relative organ weight (w.r.t body weight) Liver ([4]; male mice, 15 days): 0.044 ± 0.001
- ACP ([4]; male mice, 15 days): 5.36 ± 2.34^# IU/L
- ALP ([4]; male mice, 15 days): 20.20 ± 6.18^# IU/L
- ALT(SGPT) ([4]; male mice, 15 days): 11.93 ± 4.364^# IU/L
- AST(SGOT) ([4]; male mice, 15 days): 5.83 ± 1.75^# IU/L
- Total Protein ([4]; male mice, 15 days): 2.75 ± 0.167 g/dL
